In assay [1] the test system is KCl contraction in rat arteries (thoracic aorta). In words: Action easing KCl contraction in rat arteries (thoracic aorta ring). Conditions: read-out: IC50 value (50% inhibitory concentration of hyperpotassium contraction), Test Example 7, Table 7, 37° C. How it is done:
Action easing KCl contraction in rat arteries
The specimen was stabilized for approximately 60 minutes, then a potassium chloride solution was added to the Magnus tube to give a final concentration of […]. The positive control compound or the compound of the present invention was cumulatively added from 1×10^-10 M to 1×10^-4 M when the contraction reaction occurring at that time reached equilibrium. The contraction force was recorded by an FD-pickup (made by Nihon Kodensha) via a polygraph (made by Nihon Kodensha).

For the next assay, the system named is TxA2 synthesis. The assay can be described thus: TxA2 synthesis inhibiting action test (human blood platelet microsomes). It counts as biochemical. Conditions: prostaglandin H2. Here is the method: TxA2 Synthesis Inhibiting Action Test
One ml of a buffer (20 mM Tris-HCl buffer, 1 mM EDTA, pH 7.5) containing human blood platelet microsomes (50 μg protein/ml) and the test compound (final concentration 10^-7 M) was agitated, then incubated at 0° C. for 30 minutes. To this was added prostaglandin H2 (100 ng/2 μl). This was incubated at 23° C. for 3 minutes to cause a reaction. Next, 1M hydrochloric acid was added to make the solution acidic and stop the reaction, then this was neutralized by 1M Tris-Base and centrifuged at 3000 rpm for 20 minutes. The amount of the TxB2 in the supernatant was measured by the EIA method (Cayman Co. kit).

For assay [2], the system named is VCR resistant murine leukemia (P388/VCR) cells. The assay can be described thus: In vivo effect for overcoming resistance to vincristine in VCR resistant murine leukemia (P388/VCR) bearing mice. Also noted: species or system CDF1 male mice. An excerpt: In vivo test of action suppressing proliferation of cancer cells by concomitant use with anti-cancer drug
The number of survival days were found and the life prolonging rate (T/C) with respect to the controls was found. The effect in overcoming resistance to an anti-cancer drug (T/V) was found by the following formula.
Effect for overcoming resistance to an anti-cancer drug (T/V) %
=[Life prolonging rate (T/C) in case of concomitant use of VCR and the compound of the present invention]/[Life prolonging rate (T/C) in case of VCR alone]×100
Using Compound 18 to Compound 22 and Compound 32, the same procedure was followed as in Test Example 5 to find the effect for overcoming resistance to an anti-cancer drug in vincristine (VCR) resistant murine leukemia cell bearing mice.

The subject of assay [3] is KCl contraction in rat arteries (thoracic aorta). The assay can be described thus: Action easing KCl contraction in rat arteries (thoracic aorta ring). Conditions: read-out: IC50 value (50% inhibitory concentration of hypercalcemic contraction), Test Example 8, Table 8.
Setting [4] is: Test Example 5, Table 5, T/C with VCR + compound over T/C with VCR alone ×100.
The mark [5] stands for this setting: Test Example 5, Table 5, VCR 100 μg/kg i.p. 5 days with compound 100 mg/kg (verapamil 60, nicardipine 75 mg/kg).
The mark [6] stands for this setting: Test Example 6, Table 6, same procedure as Test Example 5.

Where two headings read alike, the source gives them in different places.

With `CCCC1C(C(=O)OCCCc2cccnc2)=C(C)NC(C)=C1C(=O)OCCCc1cccnc1` [Compound 2, 2,6-dimethyl-4-n-propyl-1,4-dihydropyridine-3,5-dicarboxylic acid bis[3-(3-pyridyl)propyl]ester], in assay [1], the IC50 was above 30 µM. Besides, the “TxA2 synthesis inhibiting action Rate of suppression at 10^-7 mol (%)” value (from here on “TxA2 synthesis inhibiting action Rate … (%)”) in the assay with TxA2 synthesis was determined as 72.0%.
For `CC1=C(C(=O)OCCCc2cccnc2)C(CC(C)(C)C)C(C(=O)OCCCc2cccnc2)=C(C)N1` [Compound 4, 2,6-dimethyl-4-(2,2-dimethylpropyl)-1,4-dihydropyridine-3,5-dicarboxylic acid bis[3-(3-pyridyl)propyl]ester], the “Effect for overcoming resistance T/V (%)” value in assay [2] (setting [4]) is reported as 136%. Moreover, in assay [2] (setting [5]), the “Life prolonging rate T/C (%)” value turned out to be 145% and the “Mean days of survival” value was 14.5 days. Also, the IC50 in assay [1] turned out to be 20.5 µM. Further, in the assay on TxA2 synthesis, the “TxA2 synthesis inhibiting action Rate … (%)” value is given as 49.1%.
`CC1=C(C(=O)OCCCc2cccnc2)C(C(C)c2ccccc2)C(C(=O)OCCCc2cccnc2)=C(C)N1` (stereo not drawn) [Compound 7, 2,6-dimethyl-4-(1-phenylethyl)-1,4-dihydropyridine-3,5-dicarboxylic acid bis[3-(3-pyridyl)propyl]ester]: the IC50 in assay [1] was found to be 13 µM.
As to `CC1=C(C(=O)OCCCc2cccnc2)C(C2CCCCC2)C(C(=O)OCCCc2cccnc2)=C(C)N1` [Compound 8, 2,6-dimethyl-4-cyclohexyl-1,4-dihydropyridine-3,5-dicarboxylic acid bis[3-(3-pyridyl)propyl]ester], the “TxA2 synthesis inhibiting action Rate … (%)” value with TxA2 synthesis was found to be 63.0%.
On to `CCOC(=O)C1CC1C1C(C(=O)OCCCc2cccnc2)=C(C)NC(C)=C1C(=O)OCCCc1cccnc1` (stereo not drawn) [Compound 9, 2,6-dimethyl-4-(2-ethoxycarbonylcyclopropyl)-1,4-dihydropyridine-3,5-dicarboxylic acid bis[3-(3-pyridyl)propy]ester], for which the IC50 in assay [1] came to 11.5 µM.
As for `CC1=C(C(=O)OCCCc2cccnc2)C(C=Cc2ccco2)C(C(=O)OCCCc2cccnc2)=C(C)N1` [Compound 10, 2,6-dimethyl-4-(2-(2-furyl)ethenyl)-1,4-dihydropyridine-3,5-dicarboxylic acid bis[3-(3-pyridyl)propyl]ester], the IC50 in assay [1] was above 30 µM.
Consider `CC(C)=CCCC(C)CC1C(C(=O)OCCCc2cccnc2)=C(C)NC(C)=C1C(=O)OCCCc1cccnc1` (stereo not drawn) [Compound 11, 2,6-dimethyl-4-(2,6-dimethyl-5-heptenyl)-1,4-dihydropyridine-3,5-dicarboxylic acid bis[3-(3-pyridyl)propyl]ester], for which the “Effect for overcoming resistance T/V (%)” value in assay [2] (setting [4]) was 128%. Further, in assay [2] (setting [5]), the “Life prolonging rate T/C (%)” value is 137% and the “Mean days of survival” value is 13.7 days. Further, the IC50 in assay [1] was above 30 µM.
As for `CC1=C(C(=O)OCCCc2cccnc2)C(CCc2ccccc2)C(C(=O)OCCCc2cccnc2)=C(C)N1` [Compound 12, 2,6-dimethyl-4-(2-phenylethyl)-1,4-dihydropyridine-3,5-dicarboxylic acid bis[3-(3-pyridyl)propyl]ester], in assay [1], the IC50 is above 30 µM.
For `CCCCCCCCC1C(C(=O)OCCC#N)=C(C)NC(C)=C1C(=O)OCCCc1cccnc1` (stereo not drawn) [Compound 14, 2,6-dimethyl-4-n-octyl-1,4-dihydropyridine-3,5-dicarboxylic acid 3-(2-cyanoethyl) ester, 5-[3-(3-pyridyl)propyl]ester], in assay [3], the IC50 is 8.4 µM.
In the case of `CCC(C)C1C(C(=O)OCCCc2cccnc2)=C(C)NC(C)=C1C(=O)OCCCc1cccnc1` (stereo not drawn) [Compound 19, 2,6-dimethyl-4-(1-methylpropyl)-1,4-dihydropyridine-3,5-dicarboxylic acid bis[3-(3-pyridyl)propyl]ester], in assay [2] (setting [6]), the “Effect for overcoming resistance T/V (%)” value is on record as 173%, the “Life prolonging rate T/C (%)” value is 176% and the “Mean days of survival” value was determined as 18.8 days.
As to `CCC(CC)C1C(C(=O)OCCCc2cccnc2)=C(C)NC(C)=C1C(=O)OCCCc1cccnc1` [Compound 20, 2,6-dimethyl-4-(1-ethylpropyl)-1,4-dihydropyridine-3,5-dicarboxylic acid bis[3-(3-pyridyl)propyl]ester], in assay [2] (setting [6]), the “Effect for overcoming resistance T/V (%)” value came to 150%, the “Life prolonging rate T/C (%)” value came to 148% and the “Mean days of survival” value worked out at 15.8 days. In addition, the IC50 in assay [3] was 4.2 µM.
As to `CCCCC(CC)C1C(C(=O)OCCCc2cccnc2)=C(C)NC(C)=C1C(=O)OCCCc1cccnc1` (stereo not drawn) [Compound 21, 2,6-dimethyl-4-(1-ethylpentyl)-1,4-dihydropyridine-3,5-dicarboxylic acid bis[3-(3-pyridyl)propyl]ester], in assay [2] (setting [6]), the “Effect for overcoming resistance T/V (%)” value was found to be 138%, the “Life prolonging rate T/C (%)” value is on record as 140% and the “Mean days of survival” value is 15.0 days. In assay [3], the IC50 was 7 µM.
Consider `CC1=C(C(=O)OCCCc2cccnc2)C(CC(C)CC(C)(C)C)C(C(=O)OCCCc2cccnc2)=C(C)N1` (stereo not drawn) [Compound 22, 2,6-dimethyl-4-(2,4,4-trimethylpentyl)-1,4-dihydropyridine-3,5-dicarboxylic acid bis[3-(3-pyridyl)propyl]ester], for which, in assay [2] (setting [6]), the “Effect for overcoming resistance T/V (%)” value worked out at 150%, the “Life prolonging rate T/C (%)” value amounted to 148% and the “Mean days of survival” value worked out at 15.8 days. The IC50 in assay [3] was 54 µM.
Take `CCCCCCCCC1C(C(=O)OCCN2CCN(Cc3cccnc3)CC2)=C(C)NC(C)=C1C(=O)OCCN1CCN(Cc2cccnc2)CC1` [Compound 23, 2,6-dimethyl-4-n-octyl-1,4-dihydropyridine-3,5-dicarboxylic acid bis[2-(4-(3-pyridylmethyl)piperazin-1-yl)ethyl]ester]: the “Effect for overcoming resistance T/V (%)” value in assay [2] (setting [4]) is 123%. In assay [2] (setting [5]), the “Life prolonging rate T/C (%)” value turned out to be 132% and the “Mean days of survival” value is 13.2 days.
Consider `CC1=C(C(=O)OCCCc2cccnc2)C(C(C)C)C(C(=O)OCCN2CCN(Cc3cccnc3)CC2)=C(C)N1` (stereo not drawn) [Compound 28, 2,6-dimethyl-4-isopropyl-1,4-dihydropyridine-3,5-dicarboxylic acid 3-[2-(4-(3-pyridylmethyl)piperazin-1-yl)ethyl]ester, 5-[3-(3-pyridyl)propyl]ester], for which the “TxA2 synthesis inhibiting action Rate … (%)” value in the assay on TxA2 synthesis was 60.2%.
As to `CC1=C(C(=O)OCCCCc2cccnc2)C(C(C)C)C(C(=O)OCCCCc2cccnc2)=C(C)N1` [Compound 30, 2,6-dimethyl-4-isopropyl-1,4-dihydropyridine-3,5-dicarboxylic acid bis[4-(3-pyridyl)butyl]ester], the “TxA2 synthesis inhibiting action Rate … (%)” value in the assay on TxA2 synthesis came to 69.7%.
As to `CCCCCC#CC1C(C(=O)OCCCc2cccnc2)=C(C)NC(C)=C1C(=O)OCCCc1cccnc1` [Compound 32, 2,6-dimethyl-4-(1-heptynyl)-1,4-dihydropyridine-3,5-dicarboxylic acid bis[3-(3-pyridyl)propyl]ester], in assay [2] (setting [6]), the “Effect for overcoming resistance T/V (%)” value turned out to be 133%, the “Life prolonging rate T/C (%)” value is listed as 136% and the “Mean days of survival” value turned out to be 14.5 days. Besides, the IC50 in assay [3] was 10.5 µM.
`CC1=C(C(=O)OCCCc2cccnc2)C(CC2CCCC(C)(C)C2)C(C(=O)OCCCc2cccnc2)=C(C)N1` (stereo not drawn) [Compound 33, 2,6-dimethyl-4-(3,3-dimethylcyclohexylmethyl)-1,4-dihydropyridine-3,5-dicarboxylic acid bis[3-(3-pyridyl)propyl]ester]: in assay [3], the IC50 was 6.2 µM.
Take `CC1=C(C(=O)OCCCc2cccnc2)CC(C(=O)OCCCc2cccnc2)=C(C)N1` [Control 1, reference compound]: the “TxA2 synthesis inhibiting action Rate … (%)” value in the assay with TxA2 synthesis is 74.7%.
Same read-out and setting: with `CC1=C(C(=O)OCc2cccnc2)C(c2ccccc2[N+](=O)[O-])C(C(=O)OCc2cccnc2)=C(C)N1` [Control 2, reference compound] the figure was 77.9%; with `CC1=C(C(=O)OCCCc2cccnc2)C(c2ccc(C(=O)O)cc2)C(C(=O)OCCCc2cccnc2)=C(C)N1` [Control 3, reference compound], 37.6%.
`COCCOC(=O)C1=C(C)NC(C)=C(C(=O)OC(C)C)C1c1cccc([N+](=O)[O-])c1` (stereo not drawn) [Nimodipine, reference compound]: the IC50 in assay [1] was determined as 0.08 µM.
Turning to `O=C(O)/C=C/c1ccc(Cn2ccnc2)cc1` [OKY-046, reference compound], in the assay on TxA2 synthesis, the “TxA2 synthesis inhibiting action Rate … (%)” value came out at 86.4%.
Take `COc1ccc(CCN(C)CCCC(C#N)(c2ccc(OC)c(OC)c2)C(C)C)cc1OC` (stereo not drawn) [Verapamil, verapamil, reference compound]: the “Effect for overcoming resistance T/V (%)” value in assay [2] (setting [4]) stood at 127%. In assay [2] (setting [5]), the “Life prolonging rate T/C (%)” value worked out at 136% and the “Mean days of survival” value was determined as 13.6 days. Besides, the IC50 in assay [1] amounted to 2.35 µM.
